Source: the supplement of paper PMC13380429

How the values were obtained:
Settings in all cases: 72 h
U2OS [1] = assay: drug sensitivity score (DSS) for viability; higher = more toxic; extreme values may be limits of the assay
Vero E6 [2] = assay: as above
Caco-2 [3] = assay: as above
Calu-3 [4] = assay: as above
HepG2 [5] = assay: as above
U2OS [6] = assay: cell viability relative to DMSO; higher = less toxic
Vero E6 [7] = assay: as above
Caco-2 [8] = assay: as above
Calu-3 [9] = assay: as above
HepG2 [10] = assay: as above
U2OS [11] = assay: relative viability EC50 (midpoint between 100% and the lowest measured viability); higher = less toxic
Vero E6 [12] = assay: as above
Caco-2 [13] = assay: as above
Calu-3 [14] = assay: as above
HepG2 [15] = assay: as above

O=C(O)c1cc(O)c2ccc(Cl)cc2n1 [7-chlorokynurenic-acid]
drug sensitivity score (U2OS [1]): 0
drug sensitivity score (Vero E6 [2]): 0
drug sensitivity score (Caco-2 [3]): 0
drug sensitivity score (Calu-3 [4]): 0
drug sensitivity score (HepG2 [5]): 0
cell viability (U2OS [6]; 1 nM): 101%
cell viability (U2OS [6]; 10 nM): 97.6%
cell viability (U2OS [6]; 100 nM): 96.4%
cell viability (U2OS [6]; 1000 nM): 94.3%
cell viability (U2OS [6]; 10000 nM): 108%
cell viability (Vero E6 [7]; 1 nM): 96.7%
cell viability (Vero E6 [7]; 10 nM): 102%
cell viability (Vero E6 [7]; 100 nM): 94.2%
cell viability (Vero E6 [7]; 1000 nM): 95.3%
cell viability (Vero E6 [7]; 10000 nM): 108%
cell viability (Caco-2 [8]; 1 nM): 102%
cell viability (Caco-2 [8]; 10 nM): 96.1%
cell viability (Caco-2 [8]; 100 nM): 97.1%
cell viability (Caco-2 [8]; 1000 nM): 99.1%
cell viability (Caco-2 [8]; 10000 nM): 109%
cell viability (Calu-3 [9]; 1 nM): 99.9%
cell viability (Calu-3 [9]; 10 nM): 94.1%
cell viability (Calu-3 [9]; 100 nM): 98.4%
cell viability (Calu-3 [9]; 1000 nM): 98%
cell viability (Calu-3 [9]; 10000 nM): 108%
cell viability (HepG2 [10]; 1 nM): 106%
cell viability (HepG2 [10]; 10 nM): 104%
cell viability (HepG2 [10]; 100 nM): 100%
cell viability (HepG2 [10]; 1000 nM): 101%
cell viability (HepG2 [10]; 10000 nM): 97%
relative viability EC50 (U2OS [11]): > 10 µM
relative viability EC50 (Vero E6 [12]): > 10 µM
relative viability EC50 (Caco-2 [13]): > 10 µM
relative viability EC50 (Calu-3 [14]): > 10 µM
relative viability EC50 (HepG2 [15]): > 10 µM

CCCN(C/C=C/I)[C@H]1CCc2ccc(O)cc2C1 [7-hydroxy-PIPAT]
drug sensitivity score (U2OS [1]): 0
drug sensitivity score (Vero E6 [2]): 0
drug sensitivity score (Caco-2 [3]): 0
drug sensitivity score (Calu-3 [4]): 0
drug sensitivity score (HepG2 [5]): 0
cell viability (U2OS [6]; 1 nM): 98%
cell viability (U2OS [6]; 10 nM): 96.7%
cell viability (U2OS [6]; 100 nM): 101%
cell viability (U2OS [6]; 1000 nM): 103%
cell viability (U2OS [6]; 10000 nM): 98.3%
cell viability (Vero E6 [7]; 1 nM): 102%
cell viability (Vero E6 [7]; 10 nM): 104%
cell viability (Vero E6 [7]; 100 nM): 103%
cell viability (Vero E6 [7]; 1000 nM): 103%
cell viability (Vero E6 [7]; 10000 nM): 96%
cell viability (Caco-2 [8]; 1 nM): 99.8%
cell viability (Caco-2 [8]; 10 nM): 110%
cell viability (Caco-2 [8]; 100 nM): 104%
cell viability (Caco-2 [8]; 1000 nM): 108%
cell viability (Caco-2 [8]; 10000 nM): 101%
cell viability (Calu-3 [9]; 1 nM): 111%
cell viability (Calu-3 [9]; 10 nM): 97.3%
cell viability (Calu-3 [9]; 100 nM): 90.5%
cell viability (Calu-3 [9]; 1000 nM): 102%
cell viability (Calu-3 [9]; 10000 nM): 105%
cell viability (HepG2 [10]; 1 nM): 102%
cell viability (HepG2 [10]; 10 nM): 104%
cell viability (HepG2 [10]; 100 nM): 97.8%
cell viability (HepG2 [10]; 1000 nM): 101%
cell viability (HepG2 [10]; 10000 nM): 98.4%
relative viability EC50 (U2OS [11]): > 10 µM
relative viability EC50 (Vero E6 [12]): > 10 µM
relative viability EC50 (Caco-2 [13]): > 10 µM
relative viability EC50 (Calu-3 [14]): > 10 µM
relative viability EC50 (HepG2 [15]): > 10 µM

O=C(O)c1ccccc1NC(=O)N1CCC(c2ccccc2C(F)(F)F)CC1 [A-1120]
drug sensitivity score (U2OS [1]): 0
drug sensitivity score (Vero E6 [2]): 0
drug sensitivity score (Caco-2 [3]): 0.6
drug sensitivity score (Calu-3 [4]): 0
drug sensitivity score (HepG2 [5]): 0
cell viability (U2OS [6]; 1 nM): 104%
cell viability (U2OS [6]; 10 nM): 104%
cell viability (U2OS [6]; 100 nM): 102%
cell viability (U2OS [6]; 1000 nM): 100%
cell viability (U2OS [6]; 10000 nM): 98.7%
cell viability (Vero E6 [7]; 1 nM): 101%
cell viability (Vero E6 [7]; 10 nM): 100%
cell viability (Vero E6 [7]; 100 nM): 93.1%
cell viability (Vero E6 [7]; 1000 nM): 95.4%
cell viability (Vero E6 [7]; 10000 nM): 93.5%
cell viability (Caco-2 [8]; 1 nM): 100%
cell viability (Caco-2 [8]; 10 nM): 93.2%
cell viability (Caco-2 [8]; 100 nM): 98.4%
cell viability (Caco-2 [8]; 1000 nM): 96.8%
cell viability (Caco-2 [8]; 10000 nM): 84.2%
cell viability (Calu-3 [9]; 1 nM): 102%
cell viability (Calu-3 [9]; 10 nM): 96.5%
cell viability (Calu-3 [9]; 100 nM): 100%
cell viability (Calu-3 [9]; 1000 nM): 94.1%
cell viability (Calu-3 [9]; 10000 nM): 106%
cell viability (HepG2 [10]; 1 nM): 88.2%
cell viability (HepG2 [10]; 10 nM): 96.1%
cell viability (HepG2 [10]; 100 nM): 107%
cell viability (HepG2 [10]; 1000 nM): 103%
cell viability (HepG2 [10]; 10000 nM): 108%
relative viability EC50 (U2OS [11]): > 10 µM
relative viability EC50 (Vero E6 [12]): > 10 µM
relative viability EC50 (Caco-2 [13]): > 10 µM
relative viability EC50 (Calu-3 [14]): > 10 µM
relative viability EC50 (HepG2 [15]): > 10 µM

Nc1ncnc2nc(-c3ccc(N4CCOCC4)nc3)cc(-c3cccc(Br)c3)c12 [ABT-702]
drug sensitivity score (U2OS [1]): 0
drug sensitivity score (Vero E6 [2]): 0
drug sensitivity score (Caco-2 [3]): 0
drug sensitivity score (Calu-3 [4]): 0
drug sensitivity score (HepG2 [5]): 0
cell viability (U2OS [6]; 1 nM): 106%
cell viability (U2OS [6]; 10 nM): 103%
cell viability (U2OS [6]; 100 nM): 104%
cell viability (U2OS [6]; 1000 nM): 99.8%
cell viability (U2OS [6]; 10000 nM): 101%
cell viability (Vero E6 [7]; 1 nM): 96.1%
cell viability (Vero E6 [7]; 10 nM): 100%
cell viability (Vero E6 [7]; 100 nM): 95.2%
cell viability (Vero E6 [7]; 1000 nM): 94.4%
cell viability (Vero E6 [7]; 10000 nM): 88.1%
cell viability (Caco-2 [8]; 1 nM): 107%
cell viability (Caco-2 [8]; 10 nM): 99.9%
cell viability (Caco-2 [8]; 100 nM): 102%
cell viability (Caco-2 [8]; 1000 nM): 104%
cell viability (Caco-2 [8]; 10000 nM): 93.4%
cell viability (Calu-3 [9]; 1 nM): 103%
cell viability (Calu-3 [9]; 10 nM): 83.3%
cell viability (Calu-3 [9]; 100 nM): 112%
cell viability (Calu-3 [9]; 1000 nM): 95.3%
cell viability (Calu-3 [9]; 10000 nM): 100%
cell viability (HepG2 [10]; 1 nM): 104%
cell viability (HepG2 [10]; 10 nM): 96.4%
cell viability (HepG2 [10]; 100 nM): 96.5%
cell viability (HepG2 [10]; 1000 nM): 108%
cell viability (HepG2 [10]; 10000 nM): 89.6%
relative viability EC50 (U2OS [11]): > 10 µM
relative viability EC50 (Vero E6 [12]): > 10 µM
relative viability EC50 (Caco-2 [13]): > 10 µM
relative viability EC50 (Calu-3 [14]): > 10 µM
relative viability EC50 (HepG2 [15]): > 10 µM
